In patent US20070265278A1, “2-PHENYL-INDOLES AS PROSTAGLANDIN D2 RECEPTOR ANTAGONISTS” (Aventis Pharmaceuticals Inc., priority 2005, published 2007):

target: T1, DP receptor (Homo sapiens, UniProt Q13258); test: SPA cAMP assay in human LS174 T cells (human DP functional assay); type: cell-based; conditions: inhibition of PGD2 (15 nM)-stimulated cAMP, LS174T cells expressing endogenous DP receptor
T1 construct: using the human cell line LS174T, which expresses the endogenous DP receptor; endogenous in cells; host or cells: LS174T human cell line
T1 sequence (Q13258 1-359): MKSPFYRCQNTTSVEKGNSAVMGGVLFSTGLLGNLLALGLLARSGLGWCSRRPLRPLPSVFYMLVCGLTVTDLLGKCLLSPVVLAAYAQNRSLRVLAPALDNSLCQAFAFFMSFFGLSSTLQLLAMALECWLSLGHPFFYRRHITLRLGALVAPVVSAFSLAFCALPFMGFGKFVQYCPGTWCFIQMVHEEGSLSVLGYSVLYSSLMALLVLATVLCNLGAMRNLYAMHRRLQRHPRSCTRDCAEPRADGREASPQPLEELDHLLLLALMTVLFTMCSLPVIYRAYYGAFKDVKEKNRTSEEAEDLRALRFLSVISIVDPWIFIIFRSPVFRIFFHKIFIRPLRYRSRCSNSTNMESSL
Procedure: The inhibitory effects of the compounds according to the invention are assessed in a human DP functional assay. A cAMP assay is employed using the human cell line LS174T, which expresses the endogenous DP receptor. The protocol is similar to that described previously (Wright D H, Ford-Hutchinson A W, Chadee K, Metters K M, The human prostanoid DP receptor stimulates mucin secretion in LS174T cells, Br J Pharmacol. 131(8):1537-45 (2000)).
Protocol for SPA cAMP Assay in Human LS174 T Cells
• PGD2 (Cayman Chemical Cat#12010) • IBMX (Sigma Cat# 5879) • cAMP SPA direct screening assay system (Amersham code RPA 559) • 96-well cell plates (Wallac Cat# 1450-516) • Wallac 1450 Microplate Trilux scintillation counter (PerkinElmer) • Plate sealers • Eppendorf tubes • Dulbecco's Phosphate-Buffered Saline (PBS) (Invitrogen Cat#14040-133) • Distilled water • Vortex • Magnetic stirrer and stirrer bars Reagent Preparation:
All reagents should be allowed to equilibrate to room temperature before reconstitution.
Transfer the contents of the bottle to a 500 mL graduated cylinder by repeated washing with distilled water. Adjust the final volume to 500 mL with distilled water and mix thoroughly.
Dissolve each of the lysis reagents 1 and 2 in 200 mL assay buffer respectively. Leave at room temperature for 20 minutes to dissolve.
Add 30 mL of lysis buffer 2 to the bottle. Gently shake the bottle for 5 minutes.
Add 15 mL of lysis buffer 2 to each vial, and gently mix until the contents are completely dissolved.
Add 14 mL lysis buffer 2 to each vial and gently mix until the contents are completely dissolved.
Preparation of Immunoreagent
• 1) Add equal volumes of tracer, antiserum and SPA anti-rabbit reagent to a bottle, ensuring that a sufficient volume of this mixture is prepared for the desired number of wells (150 μL/well). • 2) Mix thoroughly. • 3) This immunoreagent solution should be freshly prepared before each assay and not re-used. Standard • 1) Add 1 mL lysis buffer 1 and gently mix until contents are completely dissolved. • 2) The final solution contains cAMP at a concentration of 512 pmol/mL. • 3) Label 7 polypropylene or polystyrene tubes, 0.2 pmol, 0.4 pmol, 0.8 pmol, 1.6 pmol, 3.2 pmol, 6.4 pmol and 12.8 pmol. • 4) Pipette 500 μL of lysis buffer 1 into all the tubes. • 5) Into the 12.8 pmol tube pipette 500 μL of stock standard (512 pmol/mL) and mix thoroughly. Transfer 500 μL from 12.8 pmol tube to the 6.4 pmol tube and mix thoroughly. Repeat this doubling dilution successively with the remaining tubes.
6) 50 μL aliquots in duplicate from each serial dilution and the stock standard will give rise to 8 standard levels of cAMP ranging from 0.2-25.6 pmol standard
Add 50 μL of […] IBMX into 100 mL PBS to make a final concentration of 100 μM and sonicate at 30° C. for 20 minutes.
Dissolve 1 mg PGD2 (FW, 352.5) in 284 μL DMSO to make 10 mM stock solution and store at […]. Before each assay, it is freshly prepared. Add 3 μL of 10 mM stock solution to 20 mL DMSO, mix it thoroughly, and transfer 10 mL to 40 mL PBS.
Compound dilution is carried out in Biomex 2000 (Beckman) using Method 1_cAMP DP 11 points.
5 μL of each compound from the 10 mM stock compound plates is transferred to the wells of a 96-well plate respectively as below.
Fill the plate with 45 μL of DMSO except column 7 is filled with 28 μL DMSO. Pipette column 1 thoroughly, and transfer 12 μL into column 7 parallel. Perform 1:10 serial dilution from column 1 to column 6 and from column 7 to column 11 by transfer 5 μL to 45 μL DMSO to make following concentrations:
Fill a new 96-well plate with 247.5 μL of compound dilution buffer. Transfer 2.5 μL of serially diluted compounds from above plate to the new plate (1:100 dilution) as following:
Cell Growth • 1. LS174 T are always grown in MEM (ATCC Cat# 30-2003), 10% FBS (ATCC Cat# 30-2020) and additional 2 mM L-glutamine, at 37° C. and 5% CO2. • 2. Warm 0.05% Trypsin and Versine (Invitrogen Cat# 25300-054) at 37° C. water bath. • 3. […]

Row | IC50 [nM] | Compound
1 | 8.6 | O=C(O)Cc1c(-c2ccc(Cl)c(S(=O)(=O)NCC34CC5CC(CC(C5)C3)C4)c2)[nH]c2ccccc12 [Example 1(m), (2-[4-Chloro-3-[(tricyclo[3.3.1.13.7]decan-1-ylmethyl)-sulfamoyl]-phenyl]-1H-indol-3-yl)-acetic acid]
2 | 42 | O=C(O)Cc1c(-c2ccc(Cl)c(S(=O)(=O)NC3CCCCC3)c2)n(Cc2ccccc2)c2ccccc12 [Example 2(b), [1-Benzyl-2-(4-chloro-3-cyclohexylsulfamoyl-phenyl)-1H-indol-3-yl]-acetic acid]
3 | 52 | O=C(O)Cc1c(-c2ccc(Cl)c(S(=O)(=O)NC3CCOCC3)c2)[nH]c2ccccc12 [Example 1(o), {2-[4-Chloro-3-(tetrahydro-pyran-4-ylsulfamoyl)-phenyl]-1H-indol-3-yl}-acetic acid]
4 | 5 | O=C(Cc1c(-c2ccc(Cl)c(S(=O)(=O)NC3CCCCC3)c2)[nH]c2ccccc12)NS(=O)(=O)c1ccccc1 [Example 6, 5-[3-(2-Benzenesulfonylamino-2-oxo-ethyl)-1H-indol-2-yl]-2-chloro-N-cyclohexyl benzenesulfonamide]
5 | 3 | COc1ccc2[nH]c(-c3ccc(Cl)c(S(=O)(=O)NC4CCCCC4)c3)c(CC(=O)O)c2c1 [Example 10(a), [2-(4-Chloro-3-cyclohexylsulfamoyl-phenyl)-5-methoxy-1H-indol-3-yl]-acetic acid]
6 | 8710 | Cn1c(-c2ccc(Cl)c(S(=O)(=O)NC3CCCCC3)c2)c(CCO)c2ccccc21 [Example 9, 2-Chloro-N-cyclohexyl-5-[3-(2-hydroxy-ethyl)-1-methyl-1H-indol-2-yl]-benzenesulfonamide]
7 | 4 | CC(C)(C)c1ccc2[nH]c(-c3ccc(Cl)c(S(=O)(=O)NC4CCCCC4)c3)c(CC(=O)O)c2c1 [Example 1(s), [5-tert-Butyl-2-(4-chloro-3-cyclohexylsulfamoyl-phenyl)-1H-indol-3-yl]-acetic acid]
8 | 160 | COC(=O)[C@@H](NC(=O)Cc1c(-c2ccc(Cl)c(S(=O)(=O)NC3CCCCC3)c2)[nH]c2ccccc12)C(C)C [Example 3(a), (S)-2-{2-[2-(4-chloro-3-cyclohexylsulfamoyl-phenyl)-1H-indol-3-yl]-acetylamino}-3-methyl-butyric acid methyl ester]
9 | 346 | CN(C1CCCCC1)S(=O)(=O)c1cccc(-c2[nH]c3ccccc3c2CC(=O)O)c1 [Example 10(e), {2-[3-(Cyclohexyl-methyl-sulfamoyl)-phenyl]-1H-indol-3-yl}-acetic acid]
10 | 1220 | O=C(O)Cc1c(-c2ccc(S(=O)(=O)NC3CCCCC3)c(Cl)c2)[nH]c2ccccc12 [Example 10(j), [2-(3-Chloro-4-cyclohexylsulfamoyl-phenyl)-1H-indol-3-yl]-acetic acid]
11 | 39 | O=C(O)Cc1c(-c2ccc(Cl)c(NS(=O)(=O)c3ccccc3)c2)[nH]c2ccccc12 [Example 13, [2-(3-benzenesulfonylamino-4-chlorophenyl)-1H-indol-3-yl]-acetic acid]
12 | 346 | CN(C1CCCCC1)S(=O)(=O)c1cc(-c2[nH]c3ccccc3c2CC(=O)O)ccc1Cl [Example 1(x), {2-[4-Chloro-3-(cyclohexyl-methyl-sulfamoyl)-phenyl]-1H-indol-3-yl}-acetic acid]
13 | 2.2 | O=C(O)Cc1c(-c2ccc(Cl)c(S(=O)(=O)NC3CCCCC3)c2)[nH]c2ccccc12 [Example 1(a), [2-(4-Chloro-3-cyclohexylsulfamoyl-phenyl)-1H-indol-3-yl]-acetic acid]
14 | 741 | O=C(O)c1c(-c2ccc(Cl)c(S(=O)(=O)NC3CCCCC3)c2)[nH]c2ccccc12 [Example 15, 2-(4-Chloro-3-cyclohexylsulfamoyl-phenyl)-1H-indole-3-carboxylic acid]
15 | 4.2 | O=C(O)Cc1c(-c2ccc(Cl)c(S(=O)(=O)NC3CCCCC3)c2)[nH]c2ccc(OC(F)(F)F)cc12 [Example 1(v), [2-(4-Chloro-3-cyclohexylsulfamoyl-phenyl)-5-trifluoromethoxy-1H-indol-3-yl]-acetic acid]
